Experimental data taken from US20040077540A1, “Compositions and methods for modulating physiology of epithelial junctional adhesion molecules for enhanced mucosal delivery of therapeutic compounds” (Nastech Pharmaceutical Company Inc., priority 2002, published 2004).
Where two headings read alike, the source gives them in different places. Where a SMILES comes first, the peptide text is derived from it. Where no end group is shown, it is not given here.

How the values were obtained:
[1] = test system: ciliary function in epithelial cell cultures; conditions: cited from earlier work
[2] = intraduodenal, rats, with 1% (w/v) saline dispersion of polycarbophil vs aqueous solution without polymer; cited from earlier work
[3] = MTT assay, viability of mucosal epithelial tissue; format: cell-based; design: concentration or dose not given beside the values; conditions: human, EpiAirway™ units (mucosal epithelial tissue)
Method: MTT is a cell-permeable tetrazolium salt which is reduced by mitochondrial dehydrogenase activity to an insoluble colored formazan by viable cells with intact mitochondrial function or by nonmitochondrial NAD(P)H dehydrogenase activity from cells capable of generating a respiratory burst. […] We have employed a MTT reagent kit prepared by MatTek Corp for their units in order to assess viability.
A. The MTT reagent is supplied as a concentrate and is diluted into a proprietary DMEM-based diluent on the day viability is to be assayed (typically the afternoon of the day in which permeation kinetics and TER were determined in the morning). The final MTT concentration is 1 mg/mL
B. The final MTT solution is added to wells of a 24-well microplate at a volume of 300 μL per well. As has been noted above, this volume is sufficient to contact the membranes of the EpiAirway™ units but imposes no significant positive hydrostatic pressure on the cells.
C. The units are removed from the 24-well plate in which they were placed after TER measurements, and after removing any excess liquid from the exterior surface of the units, they are transferred to the plate containing MTT reagent. The units in the plate are then placed in an incubator at 37° C. in an atmosphere of 5% CO2 in air for 3 hours.
D. At the end of the 3-hour incubation, the units containing viable cells will have turned visibly purple. The insoluble formazan must be extracted from the cells in their units to quantitate the extent of MTT reduction. Extraction of the formazan is accomplished by transferring the units to a 24-well microplate containing 2 mL extractant solution per well, after removing excess liquid from the exterior surface of the units as before. This volume is sufficient to completely cover both the membrane and the apical surface of the units. Extraction is allowed to proceed overnight at room temperature in a light-tight chamber. MTT extractants traditionally contain high concentrations of detergent, and destroy the cells.
E. At the end of the extraction, the fluid from within each unit and the fluid in its surrounding well are combined and transferred to a tube for subsequent aliquotting into a 96-well microplate (200 μL aliquots are optimal) and determination of absorbance at 570 nm on a VMax multiwell microplate spectrophotometer. […] The “blank” for the determination of formazan absorbance is a 200 μL aliquot of extractant to which no unit had been exposed. This absorbance value is assumed to constitute zero viability.
F. Two units from each kit of 24 EpiAirway™ units are left untreated during determination of permeation kinetics and TER. These units are employed as the positive control for 100% cell viability. In all the studies conducted, there was no statistically significant difference in the viability of the cells in these untreated cells compared to viability of cells in control units which had been sham treated for permeation kinetics and on which TER determinations had been performed. The absorbance of all units treated with test formulations is assumed to be linearly proportional to the percent viability of the cells in the units at the time of the incubation with MTT. It should be noted that this assay is carried out typically no sooner than four hours after introduction of the test material to the apical surface, and subsequent to rinsing of the apical surface of the units during TER determination.
The MTT assays were performed using MTT-100, MatTek kits. […] of the MTT solution was added into each well. Tissue inserts were gently rinsed with clean PBS and placed in the MTT solution. The samples were incubated at 37° C. for 3 hours. After incubation the cell culture inserts were then immersed with 2.0 mL of the extractant solution per well to completely cover each insert. The extraction plate was covered and sealed to reduce evaporation. Extraction proceeds overnight at RT in the dark. […]

[4] = test system: EpiAirway™ units (mucosal epithelial tissue); test: LDH assay, cytolysis of EpiAirway units; format: cell-based
From the text: While measurement of mitochondrial reductase activity by MTT reduction is a sensitive probe of cell viability, the assay necessarily destroys the cells and therefore can be carried out only at the end of each study. When cells undergo necrotic lysis, their cytotosolic contents are spilled into the surrounding medium, and cytosolic enzymes such as lactate dehydrogenase (LDH) can be detected in this medium. An assay for LDH in the medium can be performed on samples of medium removed at each time point of the two-hour determination of permeation kinetics. […] A. The recommended LDH assay for evaluating cytolysis of the EpiAirway™ units is based on conversion of lactate to pyruvate with generation of NADH from NAD. […] The formazan formed from reduction of INT is soluble, so that the entire assay for LDH activity can be carried out in a homogenous aqueous medium containing lactate, NAD, diaphorase, and INT. B. The assay for LDH activity is carried out on 50 μL aliquots from samples of “supernatant” medium surrounding an EpiAirway™ unit and collected at each time point. These samples were either stored for no longer than 24 h in the refrigerator or were thawed after being frozen within a few hours after collection. […] The aliquots are all transferred to a 96 well microplate. C. […] Thus, within experimental error, these sham-treated units show no cytolysis of the epithelial cells over the time course of the permeation kinetics measurements. D. […] This freeze-thaw cycle effectively lyses the cells and releases their cytosolic contents, including LDH, into the supernatant medium. […] E. To each well containing an aliquot of supernatant medium, a 50 μL aliquot of the LDH assay reagent is added. […] F. The reactions are terminated by addition of a “stop” solution of 1 M acetic acid, and within one hour of addition of the stop solution, the absorbance of the plate is determined at 490 nm. G.

aminopeptidases = conditions: cited from earlier work
[5] = aqueous solution at physiologic pH; cited from earlier work
[6] = test system: ciliary beating frequency; conditions: cited from earlier work
[7] = formulations comprising the permeabilizing peptide, read-out: MTT assay results (viability)
[8] = formulations comprising the permeabilizing peptide

Row | Molecule | viability [3, 7] | toxic effects on viability of mucosal epithelial tissue, LDH assay [4, 8] | further results
1 | 2-alkyl-4-hydroxyquinolines [pyo compound] |  |  | concentration producing ciliostasis / inhibiting ciliary motility [1]: 50 µg/mL
2 | 9-desglycinamide, 8-arginine vasopressin [DGAVP] |  |  | increase of bioavailability [2]: 3-5 fold
3 | CC[C@H](C)[C@H](NC(=O)[C@H](CCCNC(=N)N)NC(=O)[C@@H](N)C(C)C)C(=O)N1CCC[C@H]1C(=O)O [NP-A, VRIP] (H-VRIP-OH) | > 80% | no significant toxic effects | 
4 | CC[C@H](C)[C@H](N)C(=O)N[C@H](C(=O)N[C@@H](C)C(=O)N[C@@H](CO)C(=O)O)[C@@H](C)O [NP-D, ITAS] (H-ITAS-OH) | > 80% | no significant toxic effects | 
5 | CC(C)[C@H](NC(=O)[C@@H](N)CO)C(=O)N[C@H](C(=O)N[C@@H](CCCNC(=N)N)C(=O)O)[C@@H](C)O [NP-E, SVTR] (H-SVTR-OH) | > 80% | no significant toxic effects | 
6 | CC(C)CC(N)B(O)O (centres unmarked) [boro-leucine] |  |  | effectiveness in enzyme inhibition relative to bestatin (aminopeptidases): more than 100 times; effectiveness in enzyme inhibition relative to puromycin (aminopeptidases): more than 1000 times
7 | CCN(CC)/[N+]([O-])=N/O.CCNCC [diethylamine/NO] |  |  | rate (time) of NO release [5]: < 3 min
8 | NCCN(CCN)/[N+]([O-])=N/O [diethylenetriamine/NO] |  |  | rate (time) of NO release [5]: approximately 20 hours
9 | CCO [ethanol] |  |  | concentration reducing the in vitro ciliary beating frequency [6]: greater than 2%
10 | AATGLYVDQ [NP-24] | > 80% | no significant toxic effects | 
11 | ALCNQFYTP [NP-25] | > 80% | no significant toxic effects | 
12 | DIYSTLLGLP [NP-41] | > 80% | no significant adverse effects | 
13 | EDTGTYTCM [NP-8] |  |  | viability [3]: > 80%; toxic effects on viability of mucosal epithelial tissue, LDH assay [4]: no significant toxic effects
14 | GFSLGLWMEC [NP-42] | > 80% | no significant adverse effects | 
15 | GFSSPRVEW [NP-21] |  |  | viability [3]: > 80%; toxic effects on viability of mucosal epithelial tissue, LDH assay [4]: no significant toxic effects
16 | GILRDFYSPL [NP-27] | > 80% | no significant adverse effects | 
17 | GSLYGSQIY [NP-23] | > 80% | no significant toxic effects | 
18 | GVNPTAQSS [NP-22] | > 80% | no significant toxic effects | 
19 | MTPVNARYEF [NP-28] | > 80% | no significant adverse effects | 
20 | NIIQDFYNPL [NP-31] |  |  | viability [3]: > 80%; toxic effects on viability of mucosal epithelial tissue, LDH assay [4]: no significant adverse effects
21 | NTIIRDFYNP [NP-10] | > 80% | no significant adverse effects | 
22 | TGITFKSVT [NP-C] |  |  | viability [3]: > 80%; toxic effects on viability of mucosal epithelial tissue, LDH assay [4]: no significant toxic effects
23 | VASGQKREMG [NP-29] |  |  | viability [3]: > 80%; toxic effects on viability of mucosal epithelial tissue, LDH assay [4]: no significant adverse effects
24 | VKLSCAY [NP-B, VKLSCAY] |  |  | viability [3]: > 80%; toxic effects on viability of mucosal epithelial tissue, LDH assay [4]: no significant toxic effects
25 | VPDSMKFEIG [NP-30] | > 80% | no significant adverse effects | 
26 | VPVSQKYELG [NP-32] | > 80% | no significant adverse effects | 
27 | VVPEAQKREM [NP-33] | > 80% | no significant adverse effects | 
28 | YAGDNIVTAQ [NP-17] |  |  | viability [3]: > 80%; toxic effects on viability of mucosal epithelial tissue, LDH assay [4]: no significant adverse effects
29 | YLYHYCVVD [NP-26] | > 80% | no significant toxic effects | 
